One experiment deals with TRP-1 mRNA. Put plainly: TRP-1 mRNA expression through real-time PCR in α-MSH-treated B16F10. To be noted: at 100 µg/mL. The class given is cell-based, mouse. The protocol: As cell lines, RAW 264.7, B16F10 and HacaT cells were aliquoted at 3 x 10^5 cells/well to a 6-well plate and cultured in a 5% CO2 incubator at 37°C for 24 hr. Then, the culture medium was replaced with serum-free DMEM, after which, in order to induce cell inflammation, whitening and wrinkle reduction, RAW 264.7 and B16F10 were treated with lipopolysaccharide (LPS) and alpha-melanocyte-stimulating hormone (α-MSH), respectively, at 1 ppm/well, and the cells were treated with each sample solution at different concentrations and then cultured in a 5% CO2 incubator at 37°C for 24 hr. As for HacaT cells, all experimental groups except the untreated group were washed once with PBS, added with PBS, and irradiated with UV-B (300 mJ/cm^2). After irradiation, the cells were treated with the sample solution at different concentrations and cultured for 24 hr to 48 hr. […] Thereafter, RNA was quantified using absorbance, and cDNA was then synthesized using a TProfessional basic thermocycler instrument. Thereafter, 40 PCR cycles of 95°C for 10 sec, 60°C for 15 sec, and 72°C for 20 sec were performed using Power SYBR Green PCR Master Mix reagents, primers and cDNA and using a Step One real-time PCR system, and quantitative analysis was conducted using an analysis program.
The inhibition rate of TRP-1 mRNA expression by AIE was determined through real-time PCR.

The conditions of experiment [1]: Hyaluronic acid + iron 10 ppm; sample at 0.2%.
Excerpt: When hyaluronic acid is degraded by heavy metals, the viscosity of the solution decreases, so the lower the viscosity, the greater the degradation of hyaluronic acid.

For the molecule `OC[C@H]1O[C@@H](Oc2ccc(O)cc2)[C@H](O)[C@@H](O)[C@@H]1O` [arbutin], in the experiment with TRP-1 mRNA, the “inhibition of TRP-1 mRNA expression” value was 14.86%.

Consider `O=C([O-])CN(CCN(CC(=O)O)CC(=O)O)CC(=O)[O-].[Na+].[Na+]` [EDTA-2Na], for which the Viscosity in experiment [1] was 7,800 cp.

The values are drawn from EP3741379A1, “COSMETIC COMPOSITION COMPRISING AZADIRACHTA INDICA LEAF EXTRACT” (HONEST CO.,LTD., priority 2019, dated 2020).
